Experimental data reported in patent publication US6562868B1, “Method for treatment of female sexual dysfunction” (Synphora AB, priority 1999, dated 2003).

What was measured:
[1] = tested on: cat eye; test: Intraocular pressure in cats by pneumatonometry after topical administration; assay type: in vivo; settings: 1 hour after topical administration; 3 cats, local anaesthesia; before treatment 16.3+/−0.9 mmHg; control eyes 15.7+/−0.7
Procedure: To confirm that 19R-OH-PGE2-methyl ester, which is more hydrophilic than PGE1-isopropyl ester, indeed penetrates into the cornea and the intraocular parts of the eye we measured the intraocular pressure in 3 cats under local anaesthesia before and 1 hour after topical administration of the prostaglandin to the eye. The intraocular pressure was measured by pneumatonometry. One eye was treated with the test compound and the other eye received the vehicle only. In the eyes treated topically with 19R-OH-PGE2-methyl ester the intraocular pressure decreased from 16.3+/−0.9 mmHg to 12.7+/−1.2 mmHg, whereas it was 16.3+/−0.9 mmHg and 15.7+/−0.7 mmHg in the control eyes at the same time points. It is well known that prostaglandins reduce the intraocular pressure in cats (Bito et al., 1989), and it can thus be taken as an evidence that the drug has penetrated into the eye. […] Thus the absence of pain and irritation after administration of 18RS-OH-PGE2, 19R-OH-PGE2 and 20-OH-PGE2 cannot be explained en the basis of increased hydrophilicity and poor bioavailability.

[2] = tested on: cat eyes; test: Irritant effect in cat eyes (behavioural model, degree of eyelid closure); assay type: in vivo; settings: for irritant effect in words, compared to PGE1-isopropyl ester: even at doses 1000 times higher than PGE1-isopropyl ester
Procedure: (§1) The effect of the test compounds on cavernous tissue was tested using penile tissue. As mentioned previously both in the male and female the genitals contain cavernous tissue, and the penile tissue can therefore be used as model for genital cavernous tissue. The general blood vessel relaxing effect of the test compounds was studied by investigating the immediate blood pressure decrease in rats upon intravenous infusion of the test compounds. The acute drop in blood pressure reflects a peripheral vasodilation in the animals brought about by the test compounds. The general irritative effect of the test compounds was studied in the cat eye which is very sensitive to noxious stimuli.
The irritant effect of the prostaglandin analogues was tested using a behavioural model in cats. In this model the irritant effect on the eye is studied by registering the degree of eyelid closure and the behaviour of the animals. Compounds that cause discomfort and pain in the eye cause the animals to close their eyes. The analogues were applied as carboxylic acid esters, to enhance bioavailability, topically on the eye as a single dose at different dose levels. The animals were then followed for several hours at regular intervals. Each compound and dose was tested on a group of 3-6 cats. At least 3 days elapsed between two consecutive tests on the same animals. An arbitrary scale from 0 (absence of irritation) to 3 (marked irritation), with half steps was used.

[3] = tested on: rabbit penile blood vessels; test: Vasorelaxation of isolated rabbit penile blood vessel ring segments in a small vessel myograph, normalized to papaverine; assay type: cell-based; settings: FIG. 2; precontracted with 10^−6 M norepinephrine
Procedure: To study the effect of the PGE1 and […]-OH-PGE2 on the penile vasculature, penile blood vessels of the rabbit were isolated and mounted as ring segments in a small vessel myograph (J.P. Trading, Denmark) containing a solution consisting of NaCl 119 mM, KCl 4.7 mM, CaCl2 1.5 mM, MgSO4 1.17 mM, KH2PO4 1.18 mM, NaHCO3 25 mM, EDTA 0.027 mM and glucose 11 mM. The solution also contained indomethacin at a final concentration of about 3 μM, and was continuously bubbled by 95% O2 and 5%CO2. The temperature was kept constant at 37° C. The vessels were stretched and then precontracted using 10^-6 M norepinephrine, and the vasorelaxant effect of the prostaglandin analogues was normalized by comparing it to that of papaverine in the same preparation. Cumulative concentration-response curves were constructed for the analogues.

[4] = tested on: human corpus cavernosum tissue; test: Relaxation of isolated human penile cavernous tissue precontracted with norepinephrine, normalized to carbachol; assay type: cell-based; settings: FIG. 1, parallel curves; about half to one third as potent as PGE1
Procedure: as §1
Human penile cavernous tissue was obtained fresh from surgery, and representative tissue samples were mounted in smooth muscle tissue baths containing a modified Kreb's solution consisting of NaCl 119 mM, KCl 4.6 mM, MgCl2 1.2 mM, NaH2PO4 1.2 mM, NaHCO3 15 mM, CaCl2 1.5 mM and glucose 11 mM. The solution also contained indomethacin at a final concentration of about 3 μM. The solution was continuously bubbled by 95% O2 and 5% CO2, and the temperature was kept at 37° C. […]

[5] = tested on: rabbit eye; settings: rabbits; Hall and Jaitly, 1977; cited from earlier work

COC(=O)CCC/C=C\C[C@H]1C(=O)C[C@@H](O)[C@@H]1/C=C/[C@@H](O)CCC[C@@H](C)O [19R-OH—PGE2-me, 19-R-hydroxy-prostaglandin E2-methyl ester]
intraocular pressure [1]: 12.7+/−1.2 mmHg
irritant effect in words, compared to PGE1-isopropyl ester [2]: no or markedly reduced irritant effect

CCCCC[C@H](O)/C=C/[C@H]1[C@H](O)CC(=O)[C@@H]1CCCCCCC(=O)O [PGE1, reference compound]
vasodilatory effect (efficacy and potency, PGE1 versus 19R-OH-PGE2) [3]: the same efficacy in inducing vasodilatation and were also about equipotent

CCC(O)CC[C@H](O)/C=C/[C@H]1[C@H](O)CC(=O)[C@@H]1C/C=C\CCCC(=O)OC (stereo partly drawn) [18RS-OH—PGE2-me, 18RS-hydroxy PGE2 methyl ester]
irritant effect in words, compared to PGE1-isopropyl ester [2]: no or markedly reduced irritant effect

C[C@@H](O)CCC[C@H](O)/C=C/[C@H]1[C@H](O)CC(=O)[C@@H]1C/C=C\CCCC(=O)O [19R-OH-PGE2, 19R-hydroxy-prostaglandin E2]
vasodilatory effect (efficacy and potency, PGE1 versus 19R-OH-PGE2) [3]: the same efficacy in inducing vasodilatation and were also about equipotent
factor by which concentration-response curve differs from PGE1 (less potent) [4]: 2-3
irritation by swelling of the ocular structures ([2]; cat eye): no evidence of such irritation
irritant effect on ocular structures [5]: inducing swelling of the ocular structures
lid closure [5]: does not cause lid closure
